Measurements taken from patent US11220548B2, “Treatment of C1013G/CXCR4-associated Waldenstrom's macroglobulinemia with an anti-CXCR4 antibody” (BRISTOL-MYERS SQUIBB COMPANY, priority 2013, dated 2022).

Columns and labels:
[1] = system: WM cell lines; test: Adhesion of WM cells to primary WM BM-MSCs; assay type: cell-based, human; conditions: 4 h treatment, adhesion after 2 h
Protocol: FIGS. 15A-15C: FIGS. 15A-15C show the effect of BMS-936564 on adhesion and proliferation of WM cells in vitro. WM cell lines were treated with BMS-936564 for 4 h and subsequently tested for adhesion to primary WM BM-MSCs. […] WM cell lines, MWCL.1 (FIG. 15B) and BCWN.1 (FIG. 15C) were cultured with control media and with BMS-936564 for 48 h in the presence or absence of primary WM BMMSCs. Cell proliferation was assessed using a [^3H]-thymidine uptake assay. Bars indicate standard deviations. P indicates P value. All data represent mean (±sd) of triplicate experiments. The CXCR4 antagonist, […] (Sigma-Aldrich, St. Louis, Mo.), was used as control.

[2] = system: BCWM.1 cells; test: Western blot of survival signaling in WM cells; assay type: cell-based, human; conditions: 6 h, cultured in the context of BM-MSCs, increasing concentrations
Protocol: BCWM.1 cells were exposed to BMS-936564 for 6 h in presence or absence of primary WM BM-MSCs. The BCWM.1 cells were then harvested and cell lysates were subjected to western blot analysis using anti-phospho(p)-ERK1/2, anti-ERK1/2, anti-p-Akt, anti-Akt, anti-p-SRC, and anti-SRC antibodies. BCWM.1 cells cultured in the absence of WM BM-MSCs were used as control. Bars indicate standard deviation.
(§1) Protein lysates were obtained from WM cells by homogenization under nondenaturing conditions in lysis buffer (Cell Signaling Technology, Beverly, Mass.) supplemented with 5 mM NaF, 2 mM Na3VO4, 1 mM PMSF ([…]), 5 μg/mL leupeptine, and 5 μg/mL aprotinin. Whole-cell lysates were subjected to sodium dodecyl sulfate-polyacrylamide gel electrophoresis (SDS-PAGE) and transferred to polyvinylidene difluoride (PVDF) membrane (Bio-Rad Laboratories, Hercules, Calif.). The antibodies used for immunoblotting included: anti-phospho(p)-ERK, anti-ERK, anti-p-Akt, anti-Akt, anti-p-Src, anti-Src, anti-caspase-9, anti-PARP, anti-p-β-catenin, anti-β-catenin, anti-p-GSK3, anti-GAPDH and anti-α-tubulin antibodies (Cell Signaling, Danvers, Mass.).
To dissect the possible role of BMS-936564 in affecting WM signaling, WM cells were cultured in the absence or presence of primary WM BM-MSCs, with increasing concentrations of the anti-CXCR4 antibody.

[3] = system: BCWM.1 cells; test: Western blot of apoptosis-related proteins in WM cells; assay type: cell-based, human; conditions: 14 h
Protocol: FIGS. 18A and 18B: FIGS. 18A and 18B show the effect of BMS-936564 on apoptosis-related proteins in WM cells. BCWM.1 cells were exposed to BMS-936564 for 14 h. Whole cell lysates were then harvested and subjected to western blot analysis using anti-caspase-9, anti-PARP and anti-tubulin antibodies (FIG. 18A), and anti-p-β catenin, anti-β-catenin, anti-p-GSK3β, and anti-tubulin antibodies (FIG. 18B).
as §1

[4] = system: C1013G/CXCR4-infected BCWM.1 cells; test: Transwell migration assay of C1013G/CXCR4-infected cells; assay type: cell-based, human; conditions: in the context of the BM microenvironment
Protocol: (§2) FIGS. 21A-21D: FIGS. 21A-21D show BMS-936564 targets C1013G/CXCR4-mutated cells in WM cells in the context of BM. C1013G/CXCR4-infected BCWM.1 cells were tested for their migratory properties using a transwell migration assay. Cells were exposed to increasing concentrations of BMS-936564 and migration was determined after 5 h. The transwell migration assay was performed in presence of either primary WM BM-MSCs (FIG. 21A) or SDF-1α (FIG. 21B). In both cases, BMS-936564-dependent inhibition of WM cell migration was observed. C1013G/CXCR4-infected BCWM.1 cells were treated with BMS-936564/for 4 h and subsequently tested for adhesion to primary WM BM-MSCs. […] C1013G/CXCR4-infected BCWM.1 cells were cultured with control media and with BMS-936564 for 48 h in the presence or absence of primary WM BM-MSCs. Cell proliferation was assessed using [^3H]-thymidine uptake assay (FIG. 21D). Bars indicate standard deviations. P indicates P value. All data represent mean (±sd) of triplicate experiments. […].

[5] = system: C1013G/CXCR4-infected BCWM.1 cells; test: [3H]-thymidine uptake proliferation assay of C1013G/CXCR4-infected cells; assay type: cell-based, human; conditions: in the context of the BM microenvironment, 48 h
Protocol: as §2

[6] = system: BCWM.1-mCherry+ cells; test: In vivo homing and tumor progression of wild-type WM cells; design: species or system SCID/Bg mice
Protocol: Serum was collected at the end of the study. […] Cell toxicity was performed by MTT. […] Bars indicate standard deviation.
Human serum IgM levels were determined by using a human IgM ELISA assay (ZeptoMetrix, Buffalo, N.Y.), according to the manufacturer's protocol.
SCID/Bg mice (n=5/group) were injected with BCWM.1 infected with either precision LentiORF/CXCR4/GFP (CXCR4^+)- or empty vector probe/RFP (control)-infected BCWM.1 cells. After three weeks, mice were euthanized and organs harvested. Hematoxylin-eosin staining, immunohistochemistry for human-CD20 and -CXCR4 were performed on explanted organs. Independent experiments were conducted to evaluate differences in survival (SCID/Bg mice, n=7/group). Similar studies were conducted using […]/CXCR4-mutated cells and control vector-infected cells (control cells). In vivo homing studies were performed using BCWM.1-mCherry^+ cells: cells were injected intravenously into […] mice and treated with either BMS-936564 or control antibody (10 mg/kg, intraperitoneally; 3-4 times per week for 3 weeks). The ability of BMS-936564 to modulate WM homing to BM, spleen and lymph nodes was evaluated ex vivo at the third week on explanted tissues, by using a fluorescence microscope (Nikon Eclipse 80i, Melville, N.Y.) (Roccaro et al., 2013).
The anti-WM activity of BMS-936564 was also tested in vivo using wild-type WM cells. BCWM.1-mCherry^+ cells were injected intravenously into SCID/Bg mice and treated mice with either BMS-936564 or control antibody.
As CXCR4 inhibition is thought to induce stem cell and tumor cell mobilization, it was hypothesized that BMS-936564 may also induce mobilization of WM cells leading to increased chemosensitivity to anti-WM agents. Accordingly, the effect of BMS-936564 in modulating tumor progression and WM cell dissemination to distant BM niches in vivo was evaluated as monotherapy or in combination with bortezomib.

## BMS-936564: fully human anti-CXCR4 monoclonal antibody; VH SEQ ID NO: 25, VL SEQ ID NO: 29
[1]
  WM cell adhesion to WM BM-MSCs: inhibition
[2]
  p-Akt, p-ERK, and p-Src in WM cells: drug-dependent inhibition
[3]
  caspase-9 and PARP cleavage: increase
  p-GSK3-β, p-β-catenin and β-catenin: increased phospho(p)-GSK3-β, and p-β-catenin up-regulation, leading to β-catenin degradation
[4]
  targeting migration of CXCR4-mutated cells: equally active
[5]
  targeting proliferative properties of CXCR4-mutated cells: equally active
[6]; BMS-936564 10 mg/kg i.p., bortezomib 0.5 mg/kg i.p. x2/week, P<0.05
  tumor cells within the BM: significant reduction
[6]; human IgM ELISA at end of study, P<0.05
  serum IgM levels: significantly reduced
[6]; wild-type WM cells, 10 mg/kg intraperitoneally, vs control antibody
  WM cell dissemination (BM, spleen and lymph nodes, immunofluorescence imaging ex vivo): inhibit WM cell dissemination
